Values of other authors as cited in patent US11399559B2, “Nutritional products having improved lipophilic solubility and bioavailability in an easily mixable form” (ABBOTT LABORATORIES, priority 2015, dated 2022).
Like-named read-outs stand apart in the source and are kept apart here.

SMILES: Cc1c(C)c2c(c(C)c1O)CC[C@@](C)(CCC[C@H](C)CCC[C@H](C)CCCC(C)C)O2 [RRR-alpha-tocopherol]
- Biological activity relative to all-rac-alpha-tocopherol (accepted nutritional guidelines): 1.36 times
- Biological activity relative to all-rac-alpha-tocopherol (recent studies): about 2 times
